This is an account of results in US5811393A (The Childrens Medical Center Corp., priority 1993, dated 1998).

Assay [1] relates to bovine aortic smooth muscle cells (BASMC). The assay is described as follows: Bovine aortic smooth muscle cell proliferation by cell counting. Format: cell-based. The note with it: cells counted after three days, 1% calf serum. How it is done:
Bovine aortic smooth muscle cell proliferation was also assayed by counting cell number following growth factor stimulation. In these experiments, cells were plated sparsely in 24 well plates in DMEM/10% bovine calf serum/1% GPS (100% GPS is glutamine 29.2 mg/ml, penicillin 10,000 units/ml, streptomycin sulfate 10,000 μg/ml; GIBCO, Grand Island, N.Y.) at 10^4 cells/well. Test samples were then added and, after three days, cells were removed by trypsinization and counted in a Coulter counter (Coulter, Hialeah, Fla.).
BASMC were plated in DMEM, 10% calf serum, 100 U/ml penicillin, 100 μg/ml streptomycin sulfate at 5×10^3 cells/well in a 24 well plate, and, after attachment of the cells (e.g., following an overnight incubation), the media was replaced with DMEM, 1% calf serum, and penicillin and streptomycin as above. HB-EHM, recombinant human EGF (Creative Biomolecules, Hopkinton, Mass.), or recombinant PDGF (Creative Biomolecules, Hopkinton, Mass.) was then added to the wells. Cells were counted after three days.

In assay [2] the test system is EGF receptors on BASMC. The assay is described as follows: Competitive [125I]EGF binding to bovine aortic smooth muscle cells. The note with it: BASMC. How it is done: Competitive binding assays were used to measure this interaction and were performed as follows.
Assay [3] has as its system EGF receptor. The assay is described as follows: EGF receptor autophosphorylation in A-431 cells (anti-phosphotyrosine Western blot). Format: cell-based, human. The note with it: 5 ng/ml, 15 minutes. How it is done: This was shown by plating A-431 cells in 6-well plates and culturing in Dulbecco's Modified Eagle's Medium (DMEM) containing 10% fetal bovine serum and antibiotics. […] After 15 minutes, the cells were washed with ice-cold phosphate-buffered saline containing 0.4 mm EDTA, 10 mM Na-fluorate, 10 mM Na-pyrophosphate and 0.4 mM Na-orthovanadate, scraped and lysed in 100 μl of PI/RIPA buffer [1% NP-40 (Pierce, Rockford, Ill.), 1% deoxycholate (Aldrich, Milwaukee, Wis.), 0.1% SDS, 1% aprotinin (Boehringer-Mannheim, Indianapolis, Ind.), 1 mM PMSF (Pierce), 2 mM EDTA (Sigma), 10 mM Na-fluorate, (Sigma, St. Louis, Mo.), 10 mM Na-pyrophosphate (Baker, Phillipsburg, N.J.), 0.4 mM Na-orthovanadate, (Aldrich), 10 mM iodoacetamide (Aldrich) in phosphate buffered saline]. Thirty μl of supernatant clarified by spinning for a 5 minute period in a microfuge was analyzed by reducing SDS/polyacrylamide gel electrophoresis (6% polyacrylamide gel). […] A standard of phosphorylated EGF receptor was purchased from UBI (Lake Placid, N.Y.).

For assay [4] the following is noted: cited from earlier work.
The target of assay [5] is EGF receptor on bovine aortic smooth muscle cells (BASMC) (bovine).
The target is the same in assay [6]. This is another data set of the same source.
Assay [7] has as its system BALB/c mouse 3T3 cells. The assay is described as follows: DNA synthesis ([3H]-thymidine incorporation) / proliferation of BALB/c mouse 3T3 cells. Format: cell-based. The following applies: E. coli-produced protein. Background: Dividing cells build labelled thymidine or BrdU into new DNA.
Experimental: Conditioned medium was assayed for growth factor activity directly, as described below, using either fibroblasts (i.e., BALB/c mouse 3T3 cells), epithelial cells (i.e., human keratinocytes), or smooth muscle cells (i.e., bovine aortic smooth muscle cells, BASMC). Alternatively, CM was first fractionated by fast protein liquid chromatography (FPLC, Pharmacia, Piscataway, N.J.) by applying 500 ml of the CM to a TSK-heparin 5PW column (8×75 mm, TOSOHAAS, Philadelphia, Pa.). The column was washed with 10 column volumes of equilibration buffer (0.2M NaCl, 0.01M Tris-HCl, pH 7.5), and bound protein was eluted with a 40 ml linear gradient of 0.2-2M NaCl in 0.01M Tris-HCl , pH 7.4 at 1 ml/min. Fractions (2.5 ml) were tested for growth factor activity by measuring the effect of aliquots of the fractions on DNA synthesis in, or the proliferation of, BALB/c mouse 3T3 cells; such activity was monitored by assaying the incorporation of [^3 H]-thymidine into DNA and/or by measuring the increase in cell number. […] One unit of BALB/c mouse 3T3 stimulation activity was defined as the amount of growth factor required to stimulate half-maximal DNA synthesis in BALB/c mouse 3T3 cells under the conditions described in Shing et al. (supra).

As to “EGF: epidermal growth factor, recombinant human, commercial comparator [reference compound]”, the “increase in BASMC proliferation” value in assay [1] (4 ng/ml) turned out to be 2.5 fold. In addition, the “50% inhibition of [125I]EGF binding” value in assay [2] (6-well plates) came out at 290 pg/mL. The IC50 in assay [2] (read-out: 50% inhibition of [125I]EGF binding, molar value in brackets) was determined as 0.048 nM. The “autophosphorylation of the EGF receptor (170 kDa protein)” value in assay [3] is reported as “also phosphorylated”. Also, the binding to heparin entry in assay [4] (conditions of the cited references) is on record as “does not bind heparin to any substantial extent”.
In assay [5], “recombinant human EGF (from UniProt P01133) (ligand)” displayed a BASMC proliferation (cell count after three days) (fold increase) of 2.5.
Regarding PDGF, the “increase in BASMC proliferation” value in assay [1] (500 pg/ml) is 2.5 fold. Moreover, in assay [4] (literature values), the “NaCl concentration eluting from immobilized heparin columns” value is listed as 0.5 M.

B1: heparin binding EGF-homologous mitogen (HB-EHM), purified from U-937 conditioned medium, 33 minute peak form (ligand)
chain: RVTLSSKPQALATPNKEEHGKRKKKGKGLGKKRDPCLRKYKDFCIHGECKYVKELRAPSCICHPGYHGERCHGLS
modifications: O-linked glycosylation (suggested by O-glycanase treatment; the threonines predicted at positions 2 and 12 of the form first sequenced were not detected in protein sequencing)
For the molecule B1, the Maximal Stimulation (ng/ml), from 3H-thymidine incorporation into smooth muscle cell DNA, C4 RP-HPLC step in assay [6] was determined as 0.5 ng/mL. The same molecule yielded a BASMC proliferation (cell count after three days) (fold increase) in assay [5] of 2.5.

B2: recombinant HB-EHM: HB-EHM produced in E. coli from plasmid pNA28 as CAT fusion, cleaved, refolded and purified (protein)
chain: RVTLSSKPQALATPNKEEHGKRKKKGKGLGKKRDPCLRKYKDFCIHGECKYVKELRAPSCICHPGYHGERCHGLS
modifications: O-linked glycosylation (suggested by O-glycanase treatment; the threonines predicted at positions 2 and 12 of the form first sequenced were not detected in protein sequencing)
Regarding B2, the “activity in the BALB/c 3T3 [3H]-thymidine uptake/incorporation assay” value in assay [7] is “active”.
